Measurements from publication PMC9281440, “In Vivo Distribution and Therapeutic Efficacy of Radioiodine-Labeled pH-Low Insertion Peptide Variant 3 in a Mouse Model of Breast Cancer” (Molecular Imaging, 2022).
Where “and” joins values, the source holds several entries; their conditions need not be identical. Equal entries are not always repeated. Where two headings read alike, the source gives them in different places. Peptide text beside a SMILES is read from it.

Experiments:
Assay type in all cases: in vivo, mouse
[1] = Micro-SPECT/CT imaging and distribution of 125I-labeled pHLIPs; details: female, mouse, total radioactivity, 3.7 MBq iv, micro-SPECT/CT ROI, mean ± SD, n = 4; for tissue uptake at 1 h: 1 h pi; for tissue uptake at 2 h: 2 h pi; for tissue uptake at 4 h: 4 h pi; for tissue uptake at 24 h: 24 h pi; for tissue uptake at 48 h: 48 h pi
Experimental: (§1) Five-week-old female athymic BALB/c nude mice (Shanghai Slaccas Experiment Animal Corp., Shanghai, China) were used in our study. Mouse xenograft models of MDA-MB-231, 4T1, and SK-BR-3 cells were produced by the subcutaneous injection of 5 × 10^6 cells (suspended in 150 μL PBS) into the right axilla of each mouse. The mice were used in subsequent experiments when tumor diameter reached 0.5-0.9 cm. The study protocol was approved by the institutional review board and by the Experimental Animal Center of Ruijin Hospital affiliated to the School of Medicine of Shanghai Jiao Tong University.
(§2) Three days before micro-SPECT/CT imaging, 300 μL of 1% Kl solution was administered to mice by oral gavage once a day, and 0.1% Kl was added into the drinking water to block thyroid gland activity. Mice-bearing MDA-MB-231, 4T1, or SK-BR-3 tumors were intravenously injected with 3.7 MBq of ^125I-WT-pHLIP or ^125I-Var3-pHLIP. Each group contained four mice. The mice were anesthetized by isoflurane inhalation, placed in the prone position, and scanned using a four-head SPECT/CT system (U-SPECT/CT, MI-Lab, Netherlands) and dedicated multipinhole apertures with a diameter of 1.5 mm at 1, 2, 4, 24, and 48 h after injection of ^125I-labeled peptides. CT images were acquired after static SPECT imaging (10 min/frame). The images were reconstructed using U-SPECT REC software and analyzed using PMOD software version 3.9 (Switzerland). Regions of interest (ROIs) were drawn in the tumors and organs, including the brain, heart, liver, lungs, kidneys, intestine, and bladder, at various time points. The radioactivity per gram (ID%/g) in the ROIs was measured to obtain the dynamic tumor-to-background ratio (TBR, muscle tissue was used as the background) and the in vivo distribution and kinetics of ^125I-WT-pHLIP and ^125I-Var3-pHLIP in the xenograft models of BC.

[2] = system: MDA-MB-231 tumor-bearing nude mice; experiment: as above; details: MDA-MB-231 xenografts
Experimental: as §1, §2

[3] = system: SK-BR-3 tumor-bearing nude mice; experiment: as above
Experimental: as §1, §2

[4] = BALB/c nude, bladder, MDA-MB-231 tumor-bearing nude mice, read-out: Distribution, Bladder
[5] = BALB/c nude, intestine, MDA-MB-231 tumor-bearing nude mice, read-out: Distribution, Intestine
[6] = BALB/c nude, muscle, MDA-MB-231 tumor-bearing nude mice, read-out: Distribution, Muscle
[7] = BALB/c nude, MDA-MB-231 tumor-bearing nude mice, read-out: Distribution, Tumor
[8] = BALB/c nude, SK-BR-3 tumor-bearing nude mice, read-out: Distribution, Tumor
[9] = athymic BALB/c nude, bladder, SK-BR-3 tumor-bearing nude mice, read-out: Distribution, Bladder
[10] = athymic BALB/c nude, brain, MDA-MB-231 tumor-bearing nude mice, read-out: Distribution, Brain
[11] = athymic BALB/c nude, brain, SK-BR-3 tumor-bearing nude mice, read-out: Distribution, Brain
[12] = athymic BALB/c nude, heart, MDA-MB-231 tumor-bearing nude mice, read-out: Distribution, Heart
[13] = athymic BALB/c nude, heart, SK-BR-3 tumor-bearing nude mice, read-out: Distribution, Heart
[14] = athymic BALB/c nude, intestine, SK-BR-3 tumor-bearing nude mice, read-out: Distribution, Intestine
[15] = athymic BALB/c nude, kidney, MDA-MB-231 tumor-bearing nude mice, read-out: Distribution, Kidney
[16] = athymic BALB/c nude, kidney, SK-BR-3 tumor-bearing nude mice, read-out: Distribution, Kidney
[17] = athymic BALB/c nude, liver, MDA-MB-231 tumor-bearing nude mice, read-out: Distribution, Liver
[18] = athymic BALB/c nude, liver, SK-BR-3 tumor-bearing nude mice, read-out: Distribution, Liver
[19] = athymic BALB/c nude, lung, MDA-MB-231 tumor-bearing nude mice, read-out: Distribution, Lung
[20] = athymic BALB/c nude, lung, SK-BR-3 tumor-bearing nude mice, read-out: Distribution, Lung
[21] = athymic BALB/c nude, muscle, SK-BR-3 tumor-bearing nude mice, read-out: Distribution, Muscle

- tissue uptake at 1 h [1, 4]: 20.6 ± 5.71 %ID/g
- tissue uptake at 2 h [1, 4]: 24.8 ± 3.51 %ID/g
- tissue uptake at 4 h [1, 4]: 31.6 ± 15.9 %ID/g
- tissue uptake at 24 h [1, 4]: 2.14 ± 0.88 %ID/g
- tissue uptake at 48 h [1, 4]: 0.45 ± 0.14 %ID/g
- tissue uptake at 1 h ([1]; BALB/c nude, brain, MDA-MB-231 tumor-bearing nude mice, read-out: Distribution, Brain): 1.02 ± 0.08 %ID/g
- tissue uptake at 1 h [1, 5]: 2.59 ± 0.5 %ID/g
- tissue uptake at 2 h [1, 5]: 3.18 ± 0.35 %ID/g
- tissue uptake at 4 h [1, 5]: 2.12 ± 0.33 %ID/g
- tissue uptake at 24 h [1, 5]: 0.2 ± 0.09 %ID/g
- tissue uptake at 48 h [1, 5]: 0.1 ± 0.06 %ID/g
- tissue uptake at 1 h [1, 6]: 1.12 ± 0.28 %ID/g
- tissue uptake at 2 h [1, 6]: 0.96 ± 0.32 %ID/g
- tissue uptake at 4 h [1, 6]: 0.67 ± 0.21 %ID/g
- tissue uptake at 24 h [1, 6]: 0.09 ± 0.03 %ID/g
- tissue uptake at 48 h [1, 6]: 0.04 ± 0.01 %ID/g
- tissue uptake at 1 h [1, 7]: 3.16 ± 0.67 %ID/g
- tissue uptake at 2 h [1, 7]: 3.76 ± 0.37 %ID/g
- tissue uptake at 4 h [1, 7]: 3.09 ± 0.44 %ID/g
- tissue uptake at 24 h [1, 7]: 0.47 ± 0.12 %ID/g
- tissue uptake at 48 h [1, 7]: 0.22 ± 0.07 %ID/g
- tissue uptake at 2 h [1, 8]: 2.94 ± 0.71 %ID/g
- tissue uptake at 4 h [1, 8]: 2.45 ± 0.32 %ID/g
- tissue uptake at 24 h [1, 8]: 0.26 ± 0.06 %ID/g
- tissue uptake at 48 h [1, 8]: 0.18 ± 0.06 %ID/g
- tissue uptake at 1 h [1, 9]: 18.2 ± 4.14 %ID/g
- tissue uptake at 2 h [1, 9]: 18.7 ± 15.6 %ID/g
- tissue uptake at 4 h [1, 9]: 23.4 ± 6.56 %ID/g
- tissue uptake at 24 h [1, 9]: 2.44 ± 2.14 %ID/g
- tissue uptake at 48 h [1, 9]: 0.21 ± 0.21 %ID/g
- tissue uptake at 2 h [1, 10]: 1.13 ± 0.12 %ID/g
- tissue uptake at 4 h [1, 10]: 0.75 ± 0.27 %ID/g
- tissue uptake at 24 h [1, 10]: 0.13 ± 0.07 %ID/g
- tissue uptake at 48 h [1, 10]: 0.09 ± 0.05 %ID/g
- tissue uptake at 1 h [1, 11]: 1.02 ± 0.07 %ID/g
- tissue uptake at 2 h [1, 11]: 0.95 ± 0.07 %ID/g
- tissue uptake at 4 h [1, 11]: 0.68 ± 0.2 %ID/g
- tissue uptake at 24 h [1, 11]: 0.09 ± 0.02 %ID/g
- tissue uptake at 48 h [1, 11]: 0.09 ± 0.01 %ID/g
- tissue uptake at 1 h [1, 12]: 9.47 ± 1.54 %ID/g
- tissue uptake at 2 h [1, 12]: 8.29 ± 0.52 %ID/g
- tissue uptake at 4 h [1, 12]: 5.35 ± 0.93 %ID/g
- tissue uptake at 24 h [1, 12]: 0.39 ± 0.13 %ID/g
- tissue uptake at 48 h [1, 12]: 0.14 ± 0.05 %ID/g
- tissue uptake at 1 h [1, 13]: 10.3 ± 0.54 %ID/g
- tissue uptake at 2 h [1, 13]: 8.89 ± 0.18 %ID/g
- tissue uptake at 4 h [1, 13]: 6.02 ± 1.35 %ID/g
- tissue uptake at 24 h [1, 13]: 0.38 ± 0.08 %ID/g
- tissue uptake at 48 h [1, 13]: 0.1 ± 0.02 %ID/g
- tissue uptake at 1 h [1, 14]: 3.05 ± 0.68 %ID/g
- tissue uptake at 2 h [1, 14]: 3.01 ± 0.26 %ID/g
- tissue uptake at 4 h [1, 14]: 2.38 ± 0.68 %ID/g
- tissue uptake at 24 h [1, 14]: 0.31 ± 0.14 %ID/g
- tissue uptake at 48 h [1, 14]: 0.07 ± 0.04 %ID/g
- tissue uptake at 1 h [1, 15]: 5.66 ± 2.26 %ID/g
- tissue uptake at 2 h [1, 15]: 5.61 ± 0.71 %ID/g
- tissue uptake at 4 h [1, 15]: 3.8 ± 0.89 %ID/g
- tissue uptake at 24 h [1, 15]: 0.41 ± 0.04 %ID/g
- tissue uptake at 48 h [1, 15]: 0.25 ± 0.13 %ID/g
- tissue uptake at 1 h [1, 16]: 6.67 ± 1.07 %ID/g
- tissue uptake at 2 h [1, 16]: 4.24 ± 0.97 %ID/g
- tissue uptake at 4 h [1, 16]: 3.56 ± 0.65 %ID/g
- tissue uptake at 24 h [1, 16]: 0.42 ± 0.11 %ID/g
- tissue uptake at 48 h [1, 16]: 0.18 ± 0.1 %ID/g
- tissue uptake at 1 h [1, 17]: 10.3 ± 1.33 %ID/g
- tissue uptake at 2 h [1, 17]: 10.2 ± 0.66 %ID/g
- tissue uptake at 4 h [1, 17]: 8.11 ± 1.63 %ID/g
- tissue uptake at 24 h [1, 17]: 1 ± 0.54 %ID/g
- tissue uptake at 48 h [1, 17]: 0.4 ± 0.22 %ID/g
- tissue uptake at 1 h [1, 18]: 11.4 ± 0.87 %ID/g
- tissue uptake at 2 h [1, 18]: 10.4 ± 1.6 %ID/g
- tissue uptake at 4 h [1, 18]: 11.4 ± 2.75 %ID/g
- tissue uptake at 24 h [1, 18]: 0.81 ± 0.2 %ID/g
- tissue uptake at 48 h [1, 18]: 0.23 ± 0.02 %ID/g
- tissue uptake at 1 h [1, 19]: 9.64 ± 0.8 %ID/g
- tissue uptake at 2 h [1, 19]: 9.1 ± 0.61 %ID/g
- tissue uptake at 4 h [1, 19]: 6.6 ± 0.88 %ID/g
- tissue uptake at 24 h [1, 19]: 0.49 ± 0.22 %ID/g
- tissue uptake at 48 h [1, 19]: 0.18 ± 0.05 %ID/g
- tissue uptake at 1 h [1, 20]: 9.81 ± 0.82 %ID/g
- tissue uptake at 2 h [1, 20]: 9.31 ± 1.03 %ID/g
- tissue uptake at 4 h [1, 20]: 6.93 ± 1.24 %ID/g
- tissue uptake at 24 h [1, 20]: 0.42 ± 0.12 %ID/g
- tissue uptake at 48 h [1, 20]: 0.14 ± 0.05 %ID/g
- tissue uptake at 1 h [1, 21]: 1.33 ± 0.3 %ID/g
- tissue uptake at 2 h [1, 21]: 1.21 ± 0.26 %ID/g
- tissue uptake at 4 h [1, 21]: 0.7 ± 0.12 %ID/g
- tissue uptake at 24 h [1, 21]: 0.06 ± 0.02 %ID/g
- tissue uptake at 48 h [1, 21]: 0.04 ± 0.02 %ID/g
- tissue uptake at 1 h ([1]; athymic BALB/c nude, SK-BR-3 tumor-bearing nude mice, read-out: Distribution, Tumor): 2.68 ± 1.34 %ID/g
- time after injection at which radioactive count in xenografts peaked [2]: 2 h
- Distribution, Tumor ([3]; SK-BR-3 tumor-bearing nude mice, 2 h pi, 3.7 MBq iv, micro-SPECT/CT ROI, mean ± SD, n = 4): 2.93 ± 0.71 %ID/g and 2.93 ± 0.70 %ID/g
- time after injection at which radioactive count in xenografts peaked ([3]; SK-BR-3 xenografts): 2 h
Compound: CC(C)C[C@H](NC(=O)[C@H](Cc1ccc(O)c(I)c1)NC(=O)[C@H](C)NC(=O)[C@H](CCCNC(=N)N)NC(=O)[C@H](Cc1c[nH]c2ccccc12)NC(=O)[C@@H]1CCCN1C(=O)[C@H](CC(N)=O)NC(=O)[C@H](CCC(N)=O)NC(=O)[C@H](CC(=O)O)NC(=O)[C@H](CC(=O)O)NC(=O)[C@H](CS)NC(=O)[C@H](C)N)C(=O)N[C@@H](CC(=O)O)C(=O)N[C@@H](CC(C)C)C(=O)N[C@@H](CC(C)C)C(=O)N[C@@H](Cc1ccccc1)C(=O)N1CCC[C@H]1C(=O)N[C@H](C(=O)N[C@@H](CC(=O)O)C(=O)N[C@H](C(=O)N[C@@H](CC(C)C)C(=O)N[C@@H](CC(C)C)C(=O)N[C@@H](CC(C)C)C(=O)N[C@@H](CC(=O)O)C(=O)N[C@@H](CC(C)C)C(=O)N[C@@H](CC(C)C)C(=O)N[C@@H](Cc1c[nH]c2ccccc12)C(=O)N[C@@H](CCCCN)C(=O)O)[C@@H](C)O)[C@@H](C)O [125I-Var3-pHLIP] (HELM PEPTIDE1{A.C.D.D.Q.N.P.W.R.A.[O=C([C@H](Cc1ccc(O)c(I)c1)N[*:1])[*:2]].L.D.L.L.F.P.T.D.T.L.L.L.D.L.L.W.K}$$$$V2.0; N-terminus and C-terminus assumed)
